Experimental findings from US12421280B2, “Insulin like growth factor binding protein bioactive peptide fragments” (Northwestern University, priority 2019, dated 2025) are described below.

Holding throughout (format): in vivo, rat
Data set [1] concerns male SD rats. In words: Porsolt forced swim test. Particulars: 1 hr post-dosing; for antidepressant-like effect in the Porsolt test as measured by floating time, compared with ketamine: 1 μg/kg i.v., FIG. 1A; for antidepressant-like effect in the Porsolt test (floating time), compared with IGFBP2: dose not specified, FIG. 2 legend; for antidepressant-like effect in the Porsolt test as measured by floating time, compared with IGFBP2: FIG. 2. On the procedure: Adult male (2-3 month old) Sprague-Dawley (SD) rats were purchased from Harlan (USA) for the Porsolt Forced Swim Test. Rats were housed in Lucite cages with aspen wood chip bedding, maintained on a 12:12 light:dark cycle (lights on at 5 AM), and given ad libitum access to Purina lab chow (USA) and tap water throughout the study. All experiments were approved by the Sai Life Sciences (India) Animal Care and Use Committees.
Porsolt forced swim testing was conducted as described in (Burgdorf et al., Neuropsychopharmacology, (2013), 38(5):729-742). Rats were dosed with IGFBP1-7 (1 microgram/kg i.v.; peprotech, USA) (3 mg/kg, i.v.), ketamine ([…] i.v.; Sigma, USA) or 0.9% sterile saline vehicle (1 ml/kg, i.v.). Injections were made in the lateral tail vein and rats were tested 1 hr post-dosing. Animals were placed in a 46 cm tall×20 cm in diameter clear glass tube filled to 30 cm with tap water (23±1° C.) for 15 min on the first day (habituation) and 5 min on the subsequent test day. Water was changed after every other animal. Animals were videotaped, and tapes were scored offline by a blind experimenter with high inter-rater reliability (Pearson's r>0.9). Floating time (sec) was defined as the minimal amount of effort required to keep the animal's head above and diving (number of incidences) was registered when the whole body of the animal was submersed and the animal's head was facing towards the bottom of the tank.
Based on the results of the Porsolt test in Example 1, IGFBP2, IGFBP3, and IGFBP5 were identified as the best binding proteins for inducing robust antidepressant-like effects without side effects. Given the structural similarities between all 7 IGFBPs, an amino acid sequence homology was performed to identify sequences that were homologues between IGFBP2, IGFBP3, and IGFBP5 and were not consistently shared with IGFBP1, IGFBP6 and IGFBP7. Based on this analysis, three peptides were identified (KHGLYNLKQCKMSLNGQ (SEQ ID NO: 1); PKKLRP (SEQ ID NO: 2); RGD). These peptides were synthesized using standard solid phase peptide chemistry and were assessed in the Porsolt Test as described above.

Data set [2] has as its system rats. In words: Contextual fear extinction (model of PTSD). Particulars: 1 mg/kg IV one hour before the first extinction session. On the procedure: (§1) These experiments were conducted as described in Burgdorf et al. (Int. J. Neuropsychopharmacol., 2017, 20:476-484).
The subject of data set [3] is rats. Nature of the data set: Positive emotional learning: hedonic 50-kHz ultrasonic vocalizations during heterospecific play, with center crosses in the same assay. Conditions: 0.01, 0.1, 1, 10, and 30 mg/kg vs. vehicle, P<0.05. As to the method: as §1
Setting [4] is: Table 1 raw data, one value per rat, ketamine 10 mg/kg i.v., 5 min test session.

“And” between values parts separate entries of the source, which are not always exact repeats. Identical values can stand only once.

Turning to `CNC1(c2ccccc2Cl)CCCCC1=O` (stereo not drawn) [ket, ketamine, reference compound], in data set [1] (setting [4]), the “diving (number of incidences)” value is 0 (6×) and 1; the “floating (floating time)” value was 30.5 s and 55 s and 79.5 s and 31.2 s and 59.3 s and 78.1 s and 39.6 s.
With “IGFBP3: insulin-like growth factor binding protein 3 (peprotech, USA)”, the “antidepressant-like effect in the Porsolt test as measured by floating time, compared with ketamine” value in data set [1] (ketamine 10 mg/kg i.v.) is recorded as “equivalent antidepressant-like effect as ketamine”. Moreover, in data set [1] (Table 1 raw data, one value per rat, IGFBP 1 μg/kg i.v., 5 min test session, listed as BP3), the “floating (floating time)” value is 29.3 s and 35.8 s and 42.8 s and 23.3 s and 84.9 s and 140.5 s and 142.3 s.
Turning to “IGFBP5: insulin-like growth factor binding protein 5 (peprotech, USA)”, in data set [1] (ketamine 10 mg/kg i.v.), the “antidepressant-like effect in the Porsolt test as measured by floating time, compared with ketamine” value was “equivalent antidepressant-like effect as ketamine”. The “floating (floating time)” value in data set [1] (Table 1 raw data, one value per rat, IGFBP 1 μg/kg i.v., 5 min test session, listed as BP5) was 14.4 sec and 104.6 sec and 55 sec and 8.4 sec and 27.7 sec (2×) and 25.7 sec.
For “IGFBP7: insulin-like growth factor binding protein 7 (peprotech, USA)”, in data set [1] (ketamine 10 mg/kg i.v.), the “antidepressant-like effect in the Porsolt test as measured by floating time, compared with ketamine” value is “equivalent antidepressant-like effect”. For the same molecule, the “floating (floating time)” value in data set [1] (Table 1 raw data, one value per rat, IGFBP 1 μg/kg i.v., 5 min test session, listed as BP7) was 24.5 s and 123.8 s and 52.5 s and 94.4 s and 9.8 s and 30.8 s and 60.1 s.
For “KHGLYNLKQCKMSLNGQ [made by solid phase peptide chemistry]”, the “antidepressant-like effect in the Porsolt test (floating time), compared with IGFBP2” value in data set [1] was “equivalent antidepressant-like effect as IGFBP2”. Also, the “floating (floating time)” value in data set [1] (Table 2 raw data, one value per rat, dose 54 (low dose, unit not given), listed as KH . . .) is 29.2 s and 26.5 s and 25.2 s and 24.2 s and 43.3 s and 33.4 s and 53.8 s and 27.4 s; in data set [1] (Table 2 raw data, one value per rat, dose 540 (high dose, unit not given), listed as KH . . .), 108.7 s and 94.8 s and 121.4 s and 149.1 s and 101.5 s and 105.8 s and 130 s and 147.9 s. In data set [1] (low dose), the “antidepressant-like effect in the Porsolt test as measured by floating time, compared with IGFBP2” value is “equivalent or superior antidepressant-like effect”.
For the molecule “PKKLRP [made by solid phase peptide chemistry]”, in data set [2] (FIG. 3D), the “spontaneous recovery (difference in freezing 14 days post dosing versus extinction session 6)” value is given as “increased”. Moreover, the “contextual fear extinction across each test day” value in data set [2] (sessions 1-6 drug vs. vehicle, P<0.05, FIG. 3C) is “increased contextual fear extinction”. Further, in data set [3] (FIG. 3B), the “center crosses (index of an anxiolytic drug effect)” value is given as “increased”. Moreover, in data set [3] (1 hr post dosing, FIG. 3A), the “positive emotional learning (rates of hedonic ultrasonic vocalizations during heterospecific play)” value was “increased positive emotional learning”. Besides, the “antidepressant-like effect in the Porsolt test (floating time), compared with IGFBP2” value in data set [1] is listed as “equivalent antidepressant-like effect as IGFBP2”. In addition, the “floating (floating time)” value in data set [1] (Table 2 raw data, one value per rat, dose 20 (low dose, unit not given), listed as PK . . .) was 16.6 s and 6.6 s and 10.2 s and 26.2 s and 18.2 s and 15.5 s and 22.4 s and 7.6 s; in data set [1] (Table 2 raw data, one value per rat, dose 200 (high dose, unit not given), listed as PK . . .) it was 17.3 s and 4.3 s and 47.8 s and 9 s and 18.4 s and 45.6 s and 2.3 s and 7.7 s. For the same molecule, the “antidepressant-like effect in the Porsolt test as measured by floating time, compared with IGFBP2” value in data set [1] (high dose) and in data set [1] (low dose) was “equivalent or superior antidepressant-like effect” in each case.
On to RGD, for which the “floating (floating time)” value is 115.4 s and 132.9 s and 113.1 s and 125.8 s and 108.2 s and 140.6 s and 139.7 s and 127.8 s in data set [1] (Table 2 raw data, one value per rat, dose 9 (unit not given)); 137 s and 169 s and 132.7 s and 133.6 s and 81.6 s and 143.4 s and 149.6 s and 123.7 s in data set [1] (Table 2 raw data, one value per rat, dose 90 (unit not given)).

B1: IGFBP6: insulin-like growth factor binding protein 6 (peprotech, USA) (protein, UniProt P24592 28-240, looked up)
Insulin-like growth …: RCPGCGQGVQAGCPGGCVEEEDGGSPAEGCAEAEGCLRREGQECGVYTPNCAPGLQCHPPKDDEAPLRALLLGRGRCLPARAPAVAEENPKESKPQAGTARPQDVNRRDQQRNPGTSTTPSQPNSAGVQDTEMGPCRRHLDSVLQQLQTEVYRGAQTLYVPNCDHRGFYRKRQCRSSQGQRRGPCWCVDRMGKSLPGSPDGNGSSSCPTGSSG
For B1, the “antidepressant-like effect in the Porsolt test as measured by floating time, compared with ketamine” value in data set [1] (ketamine 10 mg/kg i.v.) was “equivalent antidepressant-like effect”. Further, in data set [1] (Table 1 raw data, one value per rat, IGFBP 1 μg/kg i.v., 5 min test session, listed as BP6), the “floating (floating time)” value was 25.6 s and 36.6 s and 10.9 s and 45 s and 27.2 s and 35.5 s and 36.3 s.

B2: IGFBP2: insulin-like growth factor binding protein 2 (peprotech, USA); positive control in Example 2 (protein, UniProt P18065 36-325, looked up)
Insulin-like growth …: AEVLFRCPPCTPERLAACGPPPVAPPAAVAAVAGGARMPCAELVREPGCGCCSVCARLEGEACGVYTPRCGQGLRCYPHPGSELPLQALVMGEGTCEKRRDAEYGASPEQVADNGDDHSEGGLVENHVDSTMNMLGGGGSAGRKPLKSGMKELAVFREKVTEQHRQMGKGGKHHLGLEEPKKLRPPPARTPCQQELDQVLERISTMRLPDERGPLEHLYSLHIPNCDKHGLYNLKQCKMSLNGQRGECWCVNPNTGKLIQGAPTIRGDPECHLFYNEQQEARGVHTQRMQ
As to B2, the “antidepressant-like effect in the Porsolt test as measured by floating time, compared with ketamine” value in data set [1] (ketamine 10 mg/kg i.v.) was “equivalent antidepressant-like effect as ketamine”. For the same molecule, the “floating (floating time)” value in data set [1] (Table 1 raw data, one value per rat, IGFBP 1 μg/kg i.v., 5 min test session, listed as BP2) was 59.8 s and 45.5 s and 41.6 s and 43.5 s and 25.7 s and 68.2 s and 83.6 s; in data set [1] (Table 2 raw data, one value per rat, positive control IGFBP2, dose not given, listed as BP2), 37.2 s and 67.1 s and 22 s and 35.6 s and 28.2 s and 65.8 s and 44.3 s and 79.1 s.

B3: IGFBP1: insulin-like growth factor binding protein 1 (peprotech, USA) (protein, UniProt P08833 26-259, looked up)
Insulin-like growth …: APWQCAPCSAEKLALCPPVSASCSEVTRSAGCGCCPMCALPLGAACGVATARCARGLSCRALPGEQQPLHALTRGQGACVQESDASAPHAAEAGSPESPESTEITEEELLDNFHLMAPSEEDHSILWDAISTYDGSKALHVTNIKKWKEPCRIELYRVVESLAKAQETSGEEISKFYLPNCNKNGFYHSRQCETSMDGEAGLCWCVYPWNGKRIPGSPEIRGDPNCQIYFNVQN
As to B3, the “floating (floating time)” value in data set [1] (Table 1 raw data, one value per rat, IGFBP 1 μg/kg i.v., 5 min test session, listed as BP1) was 156.8 s and 143.4 s and 67.5 s and 179.1 s and 130.7 s and 96.8 s and 187.9 s.

B4: IGFBP4: insulin-like growth factor binding protein 4 (peprotech, USA) (protein, UniProt P22692 22-258, looked up)
Insulin-like growth …: DEAIHCPPCSEEKLARCRPPVGCEELVREPGCGCCATCALGLGMPCGVYTPRCGSGLRCYPPRGVEKPLHTLMHGQGVCMELAEIEAIQESLQPSDKDEGDHPNNSFSPCSAHDRRCLQKHFAKIRDRSTSGGKMKVNGAPREDARPVPQGSCQSELHRALERLAASQSRTHEDLYIIPIPNCDRNGNFHPKQCHPALDGQRGKCWCVDRKTGVKLPGGLEPKGELDCHQLADSFRE
On to B4, for which, in data set [1] (Table 1 raw data, one value per rat, IGFBP 1 μg/kg i.v., 5 min test session, listed as BP4), the “floating (floating time)” value is 32.4 s and 137.2 s and 175.7 s and 189.5 s and 59 s and 64.7 s and 172.9 s.
